# Assay results published in patent publication US8993527B2, “Methods, compositions, and formulations for preventing or reducing adverse effects in a patient” (Pericor Therapeutics, Inc., priority 2005, dated 2015).
# Read-outs that look alike come from different tables or passages of the source.
# Columns and labels:
# [1] = system: patients undergoing CABG surgery; assay: Phase 2 CABG trial: difficulty in weaning from bypass; format: in vivo, human; details: for WEANING TIME: Pts without Difficulty
# Procedure: During surgery, anesthesia was maintained by continuous infusion of fentanyl and midazolam. Routine clinical parameters were recorded using standard operating room monitoring equipment. Continuous 2-lead Holter ECG and TEE data were recorded. Standard surgical procedures (e.g., aorta cross-clamping, crystalloid cardioplegia, cardiopulmonary bypass, hypothermia) were used. Anastomoses were constructed, aorta cross-clamp removed and patients were discontinued from bypass when body temperature was 37° C. The quality of anastomosis was judged by the surgeon. Difficulty in weaning from bypass was judged by need for one or more of the following: pacemaker, return to bypass, balloon pump or vasopressor administration. Hemodynamic measurements, including heart rate, arterial blood pressure, pulmonary capillary wedge pressure and cardiac output, were recorded before stemotomy, 15 and 30 min after bypass and upon chest closure. Radial artery and pulmonary artery pressures, myocardial and whole body temperature, O2 saturation, end-tidal CO2 and arterial blood gases were measured, and ECG recordings were obtained as clinically indicated. Hemodynamic variables (blood pressure, heart rate, pulmonary capillary wedge pressure) were controlled within 20% of baseline using prescribed regimens.
# The incidence of adverse clinical outcomes, such as cardiac death (death of patient attributable to primarily cardiac causes, non-fatal transmural MI (as measured by the appearance of a new Q-wave on 12-lead ECG plus a CK-MB value of ≧50 units), non-transmural MI (CK-MB value of ≧50 units), congestive heart failure (low cardiac output requiring intra-aortic balloon pump or left ventricular assist device) or life-threatening dysrhythmia (ventricular fibrillation, or ventricular tachycardia requiring cardioversion or drug treatment) was compared between the placebo and treatment groups. For the diagnosis of myocardial infarction, ECG tracings and CK-MB values were assessed centrally by observers blinded to treatment. The difficulty of weaning the patient from bypass, if any, was compared between placebo and treatment groups by noting need for one or more of the following: pacemaker, return to bypass, balloon pump or use of vasopressors.
# 8. Difficulty in Weaning. Patients were considered to have difficulty in weaning if they needed one or more of the following interventions: pacemaker, return to bypass, balloon pump or use of vasopressors. The number of patients receiving each of the above interventions was analyzed using a X^2 and Fisher's exact test, as was the number of patients classified as having difficulty in weaning. In addition, the time to weaning (defined as time from cross-clamp removal to end of bypass) in the patients experiencing difficulty were compared by a 1-way analysis of variance.
# As noted, patients were determined as being difficult to remove from cardiopulmonary bypass if they required one or more of the following interventions: insertion of a pacemaker, return to bypass, use of a balloon pump or administration of vasopressors, or another intervention which the investigation determines is indicative of difficulty in weaning. […] When a combination of the high and low dose groups were compared to placebo (Table 9b), the reduced need for vasopressor support approached statistical significance (p=0.08). […] There were no differences in any of the weaning difficulty parameters discussed above between the high and low dose groups (Table 9c).
# [2] = system: patients undergoing CABG surgery
# [3] = Phase 2 CABG trial: plasma AICA riboside concentrations and clearance; format: in vivo; details: human, intravenous, low and high doses, pre- and post-bypass, read-out: total plasma clearance (CLp) (converted)
# Procedure: 10. Plasma Levels. […] Individual values and group means were tabulated and drug clearance calculated. Dose proportionality was assessed.
# The data are also presented graphically in FIG. 18.
# [4] = system: pentylene tetrazol-induced seizures; assay: Suppression of pentylene tetrazol-induced seizures; format: in vivo, rat; details: 2000 mg/kg (total dose) intraperitoneal
# [5] = Phase 2 CABG trial: safety (serum glucose, uric acid, adverse events); format: in vivo, human
# Procedure: In addition to the hemodynamic monitoring described above the following tests were performed at screening, on the first post-operative day and at discharge:
# 1. Hematology included hemoglobin, total white cell count and differential, hematocrit and platelet count.
# 4. Any adverse events were recorded throughout by the investigator, who assessed their severity and the relationship of these adverse experiences to the treatment.
# 11. Adverse Effects. The incidence, severity and drug-relatedness of any adverse effects were tabulated by treatment group by decreasing incidence of such effects in the high dose group. Statistical analysis was not performed.
# [6] = plasma level 3.00–4.00 μg/ml, n = 44
# [7] = plasma level 4.00–5.00 μg/ml, n = 61
structure (smiles),measurement,setting,value
"NC(=O)c1ncn([C@@H]2O[C@H](CO)[C@@H](O)[C@H]2O)c1N [1 (1-110), 5-amino-1-β-D-ribofuranosyl-imidazole-4-carboxamide]",WEANING TIME,[1]; 0.05 mg/kg/min,20.4 +/− 2.5
same,WEANING TIME,[1]; 0.1 mg/kg/min,16.3 +/− 1.9
same,PATIENTS WITH ANY DIFFICULTY WEANING,"[1]; 0.05 + 0.10, 76 patients",15 (19.7%)
same,PATIENTS WITH ANY DIFFICULTY WEANING,"[1]; 0.05, 41 patients",7 (17%)
same,PATIENTS WITH ANY DIFFICULTY WEANING,"[1]; 0.10, 35 patients",8 (23%)
same,"Cardiac Death, incidence","[2]; Low Dose, n = 214",5 (2.3%)
same,"Cerebrovascular Accident, incidence","[2]; Low Dose, n = 214",2 (0.9%)
same,"Combined Clinical Outcomes, incidence","[2]; Low Dose, n = 214",23 (10.7%)
same,"Congestive Heart Failure, incidence","[2]; Low Dose, n = 214",6 (2.8%)
same,"Life-Threatening Dysrhythmia, incidence","[2]; Low Dose, n = 214",9 (4.2%)
same,decrease in incidence of MI,[2]; high dose vs placebo,68%
same,decrease in incidence of cerebrovascular accident,[2]; high dose vs placebo,88%
same,reduction in the incidence of combined outcomes,[2]; high dose vs placebo,61%
same,incidence of myocardial infarction by either ECG or CK-MB,"[2]; high dose, placebo 24.1%",20.8%
same,"Myocardial Infarction MI, incidence","[2]; plasma level 0.25–2.00 μg/ml, n = 83",2 (2.4%)
same,"Combined Clinical Outcome, incidence","[2]; plasma level 0.25–2.00 μg/ml, n = 89",9 (10.1%)
same,"Myocardial Infarction MI, incidence","[2]; plasma level 2.00–3.00 μg/ml, n = 114",5 (4.4%)
same,"Combined Clinical Outcome, incidence","[2]; plasma level 2.00–3.00 μg/ml, n = 116",11 (9.5%)
same,"Combined Clinical Outcome, incidence",[2]; [6],3 (6.8%)
same,"Myocardial Infarction MI, incidence",[2]; [6],1 (2.3%)
same,"Combined Clinical Outcome, incidence",[2]; [7],2 (3.3%)
same,"Myocardial Infarction MI, incidence",[2]; [7],0
same,"Myocardial Infarction MI, incidence","[2]; plasma level 5.00–6.00 μg/ml, n = 49",2 (4.1%)
same,"Combined Clinical Outcome, incidence","[2]; plasma level 5.00–6.00 μg/ml, n = 50",3 (6.0%)
same,"Myocardial Infarction MI, incidence","[2]; plasma level <0.25 μg/ml, n = 209",9 (4.3%)
same,"Combined Clinical Outcome, incidence","[2]; plasma level <0.25 μg/ml, n = 211",29 (13.7%)
same,"Myocardial Infarction MI, incidence","[2]; plasma level >6.00 μg/ml, n = 44",1 (2.3%)
same,"Combined Clinical Outcome, incidence","[2]; plasma level >6.00 μg/ml, n = 46",4 (8.7%)
same,clearance,[3],~20 mL/min/kg
same,latency to seizure,[4],dramatic prolongation of latency to seizure
same,"SERUM GLUCOSE, MEAN BASELINE",[5]; 0.05 mg/kg/min (n = 41),108.5 ± 4.8 mg/dL
same,"SERUM URIC ACID, MEAN BASELINE",[5]; 0.05 mg/kg/min (n = 41),5.9 ± 0.2 mg/dL
same,SERUM GLUCOSE-MEAN CHANGES FROM BASELINE,"[5]; 0.05 mg/kg/min, 24 HR POST",44.2 ± 7.4 mg/dL
same,SERUM URIC ACID-MEAN CHANGES FROM BASELINE,"[5]; 0.05 mg/kg/min, 24 HR POST",-0.5 ± 0.2 mg/dL
same,SERUM GLUCOSE-MEAN CHANGES FROM BASELINE,"[5]; 0.05 mg/kg/min, DISCHARGE",18.7 ± 6.3 mg/dL
same,SERUM URIC ACID-MEAN CHANGES FROM BASELINE,"[5]; 0.05 mg/kg/min, DISCHARGE",0.3 ± 0.2 mg/dL
same,SERUM GLUCOSE-MEAN CHANGES FROM BASELINE,"[5]; 0.05 mg/kg/min, ICU + 0",65.6 + 7.6 mg/dl
same,SERUM URIC ACID-MEAN CHANGES FROM BASELINE,"[5]; 0.05 mg/kg/min, ICU + 0",-0.3 ± 0.1 mg/dL
same,SERUM GLUCOSE-MEAN CHANGES FROM BASELINE,"[5]; 0.05 mg/kg/min, ICU + 4 HR",53.6 + 11.9 mg/dl
same,SERUM URIC ACID-MEAN CHANGES FROM BASELINE,"[5]; 0.05 mg/kg/min, ICU + 4 HR",-0.1 ± 0.1 mg/dL
same,SERUM GLUCOSE-MEAN CHANGES FROM BASELINE,"[5]; 0.05 mg/kg/min, ICU + 8 HR",58.8 + 12.1 mg/dl
same,SERUM URIC ACID-MEAN CHANGES FROM BASELINE,"[5]; 0.05 mg/kg/min, ICU + 8 HR",-0.0 ± 0.1 mg/dL
same,SERUM GLUCOSE-MEAN CHANGES FROM BASELINE,"[5]; 0.05 mg/kg/min, POST CPB",116.5 ± 10.7 mg/dL
same,SERUM URIC ACID-MEAN CHANGES FROM BASELINE,"[5]; 0.05 mg/kg/min, POST CPB",-0.6 ± 0.1 mg/dL
same,SERUM GLUCOSE-MEAN CHANGES FROM BASELINE,"[5]; 0.05 mg/kg/min, PRE CPB",18.6 ± 7.0 mg/dL
same,SERUM URIC ACID-MEAN CHANGES FROM BASELINE,"[5]; 0.05 mg/kg/min, PRE CPB",-0.1 ± 0.1 mg/dL
same,"SERUM GLUCOSE, MEAN BASELINE",[5]; 0.10 mg/kg/min (n = 35),120.6 ± 7.3 mg/dL
same,"SERUM URIC ACID, MEAN BASELINE",[5]; 0.10 mg/kg/min (n = 35),5.7 ± 0.2 mg/dL
same,SERUM URIC ACID-MEAN CHANGES FROM BASELINE,"[5]; 0.10 mg/kg/min, 24 HR POST",0.3 ± 0.3 mg/dL
same,SERUM GLUCOSE-MEAN CHANGES FROM BASELINE,"[5]; 0.10 mg/kg/min, DISCHARGE",19.2 ± 7.0 mg/dL
same,SERUM URIC ACID-MEAN CHANGES FROM BASELINE,"[5]; 0.10 mg/kg/min, DISCHARGE",-0.1 ± 0.2 mg/dL
same,SERUM GLUCOSE-MEAN CHANGES FROM BASELINE,"[5]; 0.10 mg/kg/min, ICU + 0",59.8 + 13.6 mg/dl
same,SERUM URIC ACID-MEAN CHANGES FROM BASELINE,"[5]; 0.10 mg/kg/min, ICU + 0",1.5 ± 0.2 mg/dL
same,SERUM GLUCOSE-MEAN CHANGES FROM BASELINE,"[5]; 0.10 mg/kg/min, ICU + 4 HR",55.5 + 9.6 mg/dl
same,SERUM URIC ACID-MEAN CHANGES FROM BASELINE,"[5]; 0.10 mg/kg/min, ICU + 4 HR",1.6 ± 0.2 mg/dL
same,SERUM GLUCOSE-MEAN CHANGES FROM BASELINE,"[5]; 0.10 mg/kg/min, ICU + 8 HR",44.4 + 7.5 mg/dl
same,SERUM URIC ACID-MEAN CHANGES FROM BASELINE,"[5]; 0.10 mg/kg/min, ICU + 8 HR",1.4 ± 0.2 mg/dL
same,SERUM GLUCOSE-MEAN CHANGES FROM BASELINE,"[5]; 0.10 mg/kg/min, POST CPB",120.6 ± 15.9 mg/dL
same,SERUM URIC ACID-MEAN CHANGES FROM BASELINE,"[5]; 0.10 mg/kg/min, POST CPB",0.4 ± 0.1 mg/dL
same,SERUM GLUCOSE-MEAN CHANGES FROM BASELINE,"[5]; 0.10 mg/kg/min, PRE CPB",4.8 ± 3.4 mg/dL
same,SERUM URIC ACID-MEAN CHANGES FROM BASELINE,"[5]; 0.10 mg/kg/min, PRE CPB",0.4 ± 0.1 mg/dL
same,uric acid effects in the initial high dose patients,"[5]; 0.19 or 0.38 mg/kg/min, five drug-treated patients",significant hyperuricemia and elevated urinary uric acid levels with crystalluria
same,drug-treated patients with adverse events,[5]; low dose group (0.05 mg/kg/min),28/41
